We go through one molecule from patent US9522923B2, “Selective BACE1 inhibitors” (Eli Lilly and Company, priority 2015, dated 2016).

Read-outs that look alike come from different tables or passages of the source.

Test [1] addresses T1, human BACE1(1-460):Fc (Homo sapiens, UniProt P56817).
T1 construct: made in house; host or cells: HEK293 (transient transfection, purified from conditioned media by Protein A)
Put plainly: BACE1 FRET Assay. In kind it is biochemical. To be noted: purified recombinant huBACE1:Fc, FRET substrate based on APP; Mean±SEM 0.48, n=4. The method, then:
(§1) To assess selectivity of BACE1 over BACE2, the test compound is evaluated in FRET-based enzymatic assays using specific substrates for BACE1 and BACE2 as described below. For in vitro enzymatic and cellular assays, the test compound is prepared in DMSO to make up a 10 mM stock solution. The stock solution is serially diluted in DMSO to obtain a ten-point dilution curve with final compound concentrations ranging from 10 μM to 0.05 nM in a 96-well round-bottom plate before conducting the in vitro enzymatic and whole cell assays.
Human BACE1 (accession number: AF190725) and human BACE2 (accession number: AF 204944) are cloned from total brain cDNA by RT-PCR. The nucleotide sequences corresponding to amino acid sequences #1 to 460 are inserted into the cDNA encoding human IgG1 (Fc) polypeptide (Vassar et al., Science, 286, 735-742 (1999)). […]
(§2) Conditioned media of HEK293 cell transiently transfected with huBACE1:Fc or huBACE2:Fc cDNA are collected. […] The purity of final product is assessed by electrophoresis in 4-20% Tris-Glycine SDS-PAGE. […]
Serial dilutions of the test compound are prepared as described above. […] The RFU of the mixture at time 0 is recorded at excitation wavelength 355 nm and emission wavelength 460 nm, after brief mixing on a plate shaker. […] The RFU at the end of incubation is recorded with the same excitation and emission settings used at time 0. […]

Test [2] has as its target T2, human BACE2 (1-460):Fc (Homo sapiens, UniProt Q9Y5Z0).
T2 construct: made in house; host or cells: HEK293 (transient transfection, purified from conditioned media by Protein A)
T2 sequence (Q9Y5Z0 21-460): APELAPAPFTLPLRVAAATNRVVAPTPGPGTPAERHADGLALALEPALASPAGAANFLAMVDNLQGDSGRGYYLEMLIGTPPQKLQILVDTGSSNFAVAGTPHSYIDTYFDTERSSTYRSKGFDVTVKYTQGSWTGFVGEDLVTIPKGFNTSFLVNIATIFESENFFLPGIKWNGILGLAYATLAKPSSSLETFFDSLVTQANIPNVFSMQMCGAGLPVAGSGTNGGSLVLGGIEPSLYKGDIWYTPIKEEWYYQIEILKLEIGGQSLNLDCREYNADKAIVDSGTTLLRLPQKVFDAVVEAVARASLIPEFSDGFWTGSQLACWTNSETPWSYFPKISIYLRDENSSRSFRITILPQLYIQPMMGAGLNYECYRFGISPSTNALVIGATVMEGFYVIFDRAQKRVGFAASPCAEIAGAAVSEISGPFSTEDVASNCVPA
Put plainly: BACE2 TMEM27 FRET Assay. In kind it is biochemical. The procedure: as §1
Human BACE1 (accession number: AF190725) and human BACE2 (accession number: AF 204944) are cloned from total brain cDNA by RT-PCR. […]
as §2
Transmembrane protein 27 (TMEM27) (Accession Number NM_020665), also known as Collectrin) is a recently described substrate for BACE2, but not BACE1 (Esterhazy, et al, Cell Metabolism, 14, 365-377 (2011)). […] The RFU of the mixture at time 0 is recorded at excitation wavelength 430 nm and emission wavelength 535 nm. […] The RFU at the end of incubation is recorded with the same excitation and emission settings used at time 0. […]

The target in test [3] is T3, BACE1 (Homo sapiens, UniProt P56817).
T3 construct: endogenous in cells; host or cells: SH-SY5Y (ATCC CRL2266) stably expressing human APP695Wt
Put plainly: SH-SY5YAPP695Wt Whole Cell Assay (Abeta ELISA). In kind it is cell-based. To be noted: 24 hours incubation, conditioned media, Mean ± SEM, n = 4. The procedure: as §1
The routine whole cell assay for the measurement of inhibition of BACE1 activity utilizes the human neuroblastoma cell line SH-SY5Y (ATCC Accession No. CRL2266) stably expressing a human APP695Wt cDNA. Cells are routinely used up to passage number 6 and then discarded.
SH-SY5YAPP695Wt cells are plated in 96 well tissue culture plates at 5.0×10^4 cells/well in 200 μL culture media (50% MEM/EBSS and Ham's F12, lx each sodium pyruvate, non-essential amino acids and Na bicarbonate containing 10% FBS). The following day, media is removed from the cells, fresh media added then incubated at 37° C. for 24 hours in the presence/absence of test compound at the desired concentration range.
At the end of the incubation, conditioned media are analyzed for evidence of beta-secretase activity by analysis of Abeta peptides 1-40 and 1-42 by specific sandwich ELISAs. […]

T3 sequence (P56817 46-501): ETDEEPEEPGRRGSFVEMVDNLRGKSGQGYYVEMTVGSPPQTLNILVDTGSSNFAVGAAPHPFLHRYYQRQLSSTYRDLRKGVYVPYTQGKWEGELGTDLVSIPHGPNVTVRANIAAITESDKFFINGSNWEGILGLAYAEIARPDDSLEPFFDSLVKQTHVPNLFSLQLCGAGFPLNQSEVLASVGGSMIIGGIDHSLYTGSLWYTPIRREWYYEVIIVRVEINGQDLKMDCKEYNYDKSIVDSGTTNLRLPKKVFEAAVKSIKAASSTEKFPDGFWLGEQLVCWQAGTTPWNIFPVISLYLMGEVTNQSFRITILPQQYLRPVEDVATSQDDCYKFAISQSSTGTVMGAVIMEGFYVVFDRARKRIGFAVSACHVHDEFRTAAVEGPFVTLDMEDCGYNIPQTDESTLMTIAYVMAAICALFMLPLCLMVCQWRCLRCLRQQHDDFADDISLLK
T1 sequence (P56817 22-460): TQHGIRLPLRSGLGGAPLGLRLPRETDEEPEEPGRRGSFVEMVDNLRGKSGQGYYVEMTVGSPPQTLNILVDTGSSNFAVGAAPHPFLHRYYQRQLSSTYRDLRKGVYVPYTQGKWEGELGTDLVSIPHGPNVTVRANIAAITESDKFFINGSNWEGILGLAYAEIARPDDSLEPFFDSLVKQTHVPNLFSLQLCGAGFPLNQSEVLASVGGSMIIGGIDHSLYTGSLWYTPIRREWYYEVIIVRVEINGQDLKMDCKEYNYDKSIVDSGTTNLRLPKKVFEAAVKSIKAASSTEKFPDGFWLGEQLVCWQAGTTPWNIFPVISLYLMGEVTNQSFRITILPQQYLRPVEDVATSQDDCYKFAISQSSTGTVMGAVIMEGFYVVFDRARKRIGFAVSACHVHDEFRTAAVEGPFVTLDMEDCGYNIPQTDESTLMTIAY

One may read the IC50 as the concentration at which inhibition is half-maximal. `CC(F)(F)[C@H]1OC[C@]2(c3cc(NC(=O)c4cnc(-n5cncn5)cn4)ccc3F)N=C(N)SC[C@H]12` [Example 1, N-[3-[(4aS,5S,7aS)-2-Amino-5-(1,1-difluoroethyl)-4,4a,5,7-tetrahydrofuro[3,4-d][1,3]thiazin-7a-yl]-4-fluoro-phenyl]-5-(1,2,4-triazol-1-yl)pyrazine-2-carboxamide]: the concentration for half-maximal inhibition (IC50) in test [1] came out at 1.19 nM; in test [2] (huBACE2:Fc, TMEM27 FRET substrate, Mean±SEM 202, n=4), 479 nM; in test [3] (read-out: SH-SY5YAPP695Wt A-beta (1-40) ELISA IC50), 0.385 ± 0.163 nM; in test [3] (read-out: SH-SY5YAPP695Wt A-beta (1-42) ELISA IC50), 0.381 ± 0.266 nM. Also, the “BACE2 IC50 / BACE1 IC50 ratio (selectivity for BACE1)” value in test [2] (selectivity for BACE1 over BACE2) is on record as “about 400 fold”.
